Test results from patent US10766882B2, “1,2-naphthoquinone based derivative and method of preparing the same” (YUNGJIN PHARM. CO., LTD., priority 2013, dated 2020).

How the values were obtained:
NQO1 protein = NQO1 protein (Homo sapiens, UniProt P15559); test: NQO1 activity measurement (cytochrome C reduction); type: biochemical; conditions: 5 ng NQO1 protein, 200 μM NADH, 77 μM cytochrome C, 37° C., absorbance 550 nm for 10 minutes
Procedure: An enzyme reaction solution included 25 mM Tris/HCl (pH 7.4), 0.14% bovine serum albumin, 200 μM NADH, 77 μM cytochrome C, and 5 ng of NQO1 protein. Enzymatic reaction was initiated by adding NADH and performed at 37° C. In this regard, a reaction rate was measured by observing absorbance, which was increased due to reduction of cytochrome C, at 550 nm for 10 minutes and NQO1 activity was represented as an amount of reduced cytochrome C [nmol cytochrome C reduced/min/μg protein].
Extinction coefficient for cytochrome C:21.1 mmol/L/cm=21.1 μmol/ml/cm

Cells = test: Measurement of lactate change amount within cells; type: cell-based; conditions: PCA extract of cells, lactate measured from supernatant (Megazyme, K-LATE)
Procedure: Cells were treated with 400 μl of 6% PCA, and then collected and extracted. Centrifugation (13,000 rpm, 10 min) was performed. A precipitate was dried using a Speed-Vac and then a weight of dried precipitate was measured. A supernatant was neutralized using 400 μl of 1 M KOH and a final volume thereof was adjusted to 1 ml using 0.33 M KH2PO4/K2HPO4, pH 7.5. Centrifugation (13,000 rpm, 10 min) was performed and the amount of lactate was measured from a supernatant (Megazyme, K-LATE).

C57BL/6J Lep ob/ob mice = test: Weight loss effects in obese mice (ob/ob); type: in vivo; conditions: Exp. Ex. 3-3, FIG. 3: 11 week-old ob/ob mice, 100 mg/kg oral, total of 6 days, vs 0.1% SLS controls
Procedure: 10 week-old C57BL/6J Lep ob/ob mice having genetic obesity characteristics available from ORIENTBIO were prepared. Two mice were raised in each polycarbonate breeding cage (200 W×260 L×130H (mm), Three-shine) in which temperature was 20 to 24° C., relative humidity was 35 to 65%, illuminance was 150 to 300 lux, night and day were 12 hours, and exhaust was performed at 10 to 15 air changes per hour. As a feed, low fat diet (11.9 kcal % fat, 5053, Labdiet) manufactured by ORIENTBIO was used. The feed was contained in a feeder and free intake was allowed. As drinking water, water, which was contained in a 250 mL polycarbonate based bottle, purified through a filter and a sterilizer was used and free intake was allowed.
The compound according to Example 1 synthesized in the present invention was orally administered to three C57BL/6J Lep ob/ob mice in amounts of 40 mg/kg, 80 mg/kg, and 120 mg/kg, respectively, once every day for two weeks. For administration, a disposable syringe fitted with a sonde for oral administration was used and 10 ml/kg of the compound was orally administered into the stomach. As controls, three C57BL/6J Lep ob/ob mice were administered 0.1% sodium lauryl sulfate (SLS) in an amount of 120 mg/kg in the same manner as described above. After administration, a time-dependent weight increase ratio, weight change, and intake amount were measured and results are illustrated in FIG. 1 below.
Weights of the experimental animals were measured immediately before administration of a test material and seven times a week from an administration initiation day to a test termination day. Increased total weights were calculated by subtracting weights measured on an experiment initiation day from weights measured one day before an experiment termination day. Food intake amounts were calculated by measuring feed supply amounts and remaining amounts twice a week from an initiation day of test material administration to a test termination day for each individual. […]
(§1) Experiments were performed under the same conditions as in Experimental Example 3-1 except that 15 week-old C57BL/6J Lep ob/ob mice having genetic obesity characteristics available from ORIENTBIO were prepared, the compounds according to Examples 5 and 6 were administered to three C57BL/6J Lep ob/ob mice in an amount of 150 mg/kg, 150 mg/kg of 0.1% SLS was administered to each of three C57BL/6J Lep ob/ob mice as controls, and experiments were performed for a total of one week. Weight increase ratios, weight change, and intake amounts depending on administration time were measured and results are illustrated in FIG. 5 below.
as §1, with “that 10” for “that 15”, “Examples 8, 9,” for “Examples 5”, “and 12” for “and 6”, “FIG. 6” for “FIG. 5”
Experiments were performed under the same conditions as in Experimental Example 3-1 except that 6 week-old C57BL/6J Lep ob/ob mice having genetic obesity characteristics available from ORIENTBIO were prepared, the compounds according to Examples 17, 18, 22, and 23 were administered to three C57BL/6J Lep ob/ob mice in an amount of 100 mg/kg, 100 mg/kg of 0.1% SLS was administered to each of three C57BL/6J Lep ob/ob mice as controls, and experiments were performed for a total of one week. Weight increase ratios, weight change, and intake amounts depending on administration time were measured and results are illustrated in FIG. 10 below. […]

Chain of NQO1 protein (P15559 whole entry, species assumed): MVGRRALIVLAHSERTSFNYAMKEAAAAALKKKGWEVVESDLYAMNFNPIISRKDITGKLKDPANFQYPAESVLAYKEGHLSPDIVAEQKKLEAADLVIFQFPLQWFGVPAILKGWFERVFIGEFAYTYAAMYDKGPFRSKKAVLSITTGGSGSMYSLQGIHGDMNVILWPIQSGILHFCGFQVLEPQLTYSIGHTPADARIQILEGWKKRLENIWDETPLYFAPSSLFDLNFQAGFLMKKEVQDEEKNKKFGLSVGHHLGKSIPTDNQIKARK

Row | SMILES | NQO1 activity (5 μM, [nmol cytochrome C reduced/min/μg protein]) (NQO1 protein) | Lactate change amount within cells (nmol/mg cell) (Cells) | intake amount (C57BL/6J Lep ob/ob mice) | weight increase ratio (C57BL/6J Lep ob/ob mice)
1 | CC(C)(C)Cc1nc2c([nH]1)C(=O)C(=O)c1ccccc1-2 [Example 15, 2-neopentyl-1H-naphtho[2,1-d]imidazole-4,5-dione] | 183.3 nmol cytochrome C reduced/min/μg protein | 7.2 | – | –
2 | CC(C)(C)OC(=O)N(Cc1nc2c([nH]1)C(=O)C(=O)c1ccccc1-2)c1ccccc1 [Example 48] | 59.8 nmol cytochrome C reduced/min/μg protein | 5.1 | – | –
3 | CCc1nc2c([nH]1)C(=O)C(=O)c1cc([N+](=O)[O-])ccc1-2 [Example 24] | 208.2 nmol cytochrome C reduced/min/μg protein | 4.3 | – | –
4 | O=C1C(=O)c2nccnc2-c2ccccc21 [Example 13] | 291 nmol cytochrome C reduced/min/μg protein | – | significantly decreased | significantly decreased
5 | CC(=O)Nc1ccc2c(c1)C(=O)C(=O)c1[nH]c(C(C)C)nc1-2 [Example 19] | 24.6 nmol cytochrome C reduced/min/μg protein | 6.5 | – | –
6 | CCc1nc2c(n1C)-c1ccc(F)cc1C(=O)C2=O [Example 42, 2-ethyl-7-fluoro-1-methyl-1H-naphtho[2,1-d]imidazole-4,5-dione] | 57.0 nmol cytochrome C reduced/min/μg protein | 8.9 | – | –
7 | CC(C)c1nc2c(n1C(=O)OCc1ccccc1)C(=O)C(=O)c1ccccc1-2 [Example 31] | 127.1 nmol cytochrome C reduced/min/μg protein | 5.1 | – | –
8 | CC(C)c1nc2c([nH]1)C(=O)C(=O)c1cc([N+](=O)[O-])ccc1-2 [Example 16] | 94.0 nmol cytochrome C reduced/min/μg protein | 5.8 | – | –
9 | Cn1c(C(C)(C)C)nc2c1-c1cccnc1C(=O)C2=O [Example 14] | 179 nmol cytochrome C reduced/min/μg protein | 12.4 | – | –
10 | CC(C)(C)c1nc2c([nH]1)C(=O)C(=O)c1ncccc1-2 [Example 7, 2-tert-butyl-3H-imidazo[4,5-f]quinoline-4,5-dione] | 55 nmol cytochrome C reduced/min/μg protein | 11.4 | – | –
11 | COc1ccc(-c2nc3c([nH]2)C(=O)C(=O)c2ccccc2-3)cc1 [Example 10] | 103 nmol cytochrome C reduced/min/μg protein | 9.9 | – | –
12 | CCn1c(C(C)C)nc2c1C(=O)C(=O)c1ccccc1-2 [Example 36] | 164.6 nmol cytochrome C reduced/min/μg protein | 7.8 | – | –
13 | CCc1nc2c([nH]1)C(=O)C(=O)c1cc(NCc3ccc(F)cc3)ccc1-2 [Example 47] | 41.0 nmol cytochrome C reduced/min/μg protein | 5.9 | – | –
14 | CC(C)c1nc2c(n1Cc1ccccc1)C(=O)C(=O)c1ccccc1-2 [Example 32] | 124.2 nmol cytochrome C reduced/min/μg protein | 5.8 | – | –
15 | O=C1C(=O)c2[nH]c(Cc3ccccc3)nc2-c2ccccc21 [Example 11] | 178 nmol cytochrome C reduced/min/μg protein | 7.2 | – | –
16 | CC(C)c1nc2c(n1C(=O)OC(C)(C)C)C(=O)C(=O)c1ccccc1-2 [Example 29] | 215.6 nmol cytochrome C reduced/min/μg protein | 8.1 | – | –
17 | CCOC(=O)n1c(C(C)C)nc2c1C(=O)C(=O)c1ccccc1-2 [Example 37] | 215.7 nmol cytochrome C reduced/min/μg protein | 10.3 | – | –
18 | CCc1nc2c(n1C)C(=O)C(=O)c1cc(Cl)ccc1-2 [Example 43, 7-chloro-2-ethyl-3-methyl-3H-naphtho[2,1-d]imidazole-4,5-dione] | 111.6 nmol cytochrome C reduced/min/μg protein | 6.0 | – | –
19 | CCc1nc2c(n1C)-c1ccc(Cl)cc1C(=O)C2=O [Example 44, 7-chloro-2-ethyl-1-methyl-1H-naphtho[2,1-d]imidazole-4,5-dione] | 43.4 nmol cytochrome C reduced/min/μg protein | 9.5 | – | –
20 | CCc1nc2c(n1C)-c1ccccc1C(=O)C2=O [Example 39, 2-ethyl-1-methyl-1H-naphtho[2,1-d]imidazole-4,5-dione] | 104.7 nmol cytochrome C reduced/min/μg protein | 8.4 | – | –
21 | CC(C)c1nc2c(n1Cc1ccccc1)-c1ccccc1C(=O)C2=O [Example 2, 1-benzyl-2-isopropyl-1H-naphtho[2,1-d]imidazole-4,5-dione] | 143 nmol cytochrome C reduced/min/μg protein | 7.3 | – | –
22 | CCc1nc2c(n1CC(F)(F)F)C(=O)C(=O)c1ccccc1-2 [Example 40, 2-ethyl-3-(2,2,2-trifluoroethyl)-3H-naphtho[2,1-d]imidazole-4,5-dione] | 192.9 nmol cytochrome C reduced/min/μg protein | 9.7 | – | –
23 | CC(C)C(=O)n1c(C(C)C)nc2c1C(=O)C(=O)c1ccccc1-2 [Example 28] | 177.2 nmol cytochrome C reduced/min/μg protein | 6.8 | – | –
24 | O=C1C(=O)c2[nH]c(COc3ccccc3)nc2-c2ccccc21 [Example 78] | 81.7 nmol cytochrome C reduced/min/μg protein | 8.0 | – | –
25 | CC(C)c1nc2c(n1Cc1cccc(Cl)c1)C(=O)C(=O)c1ccccc1-2 [Example 34] | 153.5 nmol cytochrome C reduced/min/μg protein | 4.9 | – | –
